Reference: EP4810052A2, “HCRHR2 SELECTIVE POLYPEPTIDES” (Gubra A/S, priority 2023, dated 2026)
Like-named read-outs stand apart in the source and are kept apart here. Starred links: 1 amine or outer side, 2 acyl side, 3 side chain; linkers in the order of their positions; H or OH if unused. Non-standard residues stand in square brackets, D forms with d. Residues, ends and D or L forms follow the SMILES beside them. Groups on a side chain read outwards from the residue. *: point of attachment. C20 diacid = O=C(O)CCCCCCCCCCCCCCCCCCC(=O)*; γGlu = O=C(O)[C@H](CCC(=O)[*:2])N[*:1]; NMeI = CC[C@H](C)[C@H](NC)C(=O)O; Nle = CCCC[C@H](N)C(=O)O; AEEA = NCCOCCOCC(=O)O; Aib = CC(C)(N)C(=O)O

Experiments:
hCRHR1 = biological target: T1, hCRHR1 (Homo sapiens, UniProt P34998); assay: HTRF cAMP assay, determination of hCRHR1 potency (peptide libraries 5 conc., purified peptides 11 conc.); assay type: cell-based
T1 sequence (P34998 24-415): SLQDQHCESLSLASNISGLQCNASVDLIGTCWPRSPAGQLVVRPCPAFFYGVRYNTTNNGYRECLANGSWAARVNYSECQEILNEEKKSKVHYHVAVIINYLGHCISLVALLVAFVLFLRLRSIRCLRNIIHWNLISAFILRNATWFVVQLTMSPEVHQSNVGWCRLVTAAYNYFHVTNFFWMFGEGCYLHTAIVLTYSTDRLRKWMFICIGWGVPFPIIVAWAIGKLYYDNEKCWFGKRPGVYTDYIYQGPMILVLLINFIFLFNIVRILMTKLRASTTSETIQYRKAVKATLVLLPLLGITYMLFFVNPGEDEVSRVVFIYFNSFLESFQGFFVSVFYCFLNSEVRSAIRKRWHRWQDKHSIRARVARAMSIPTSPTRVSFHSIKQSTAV
Method in brief: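 Cellular cAMP was read by time-resolved FRET between d2-labelled cAMP and cryptate anti-cAMP antibody. The cells were freshly thawed suspension CHO-K1 cells stably expressing human CRHR1.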

hCRHR2 = biological target: T2, hCRHR2 (Homo sapiens, UniProt Q13324); assay: HTRF cAMP assay, determination of hCRHR2 potency (peptide libraries 5 conc., purified peptides 11 conc.); assay type: cell-based
T2 sequence (Q13324 1-411): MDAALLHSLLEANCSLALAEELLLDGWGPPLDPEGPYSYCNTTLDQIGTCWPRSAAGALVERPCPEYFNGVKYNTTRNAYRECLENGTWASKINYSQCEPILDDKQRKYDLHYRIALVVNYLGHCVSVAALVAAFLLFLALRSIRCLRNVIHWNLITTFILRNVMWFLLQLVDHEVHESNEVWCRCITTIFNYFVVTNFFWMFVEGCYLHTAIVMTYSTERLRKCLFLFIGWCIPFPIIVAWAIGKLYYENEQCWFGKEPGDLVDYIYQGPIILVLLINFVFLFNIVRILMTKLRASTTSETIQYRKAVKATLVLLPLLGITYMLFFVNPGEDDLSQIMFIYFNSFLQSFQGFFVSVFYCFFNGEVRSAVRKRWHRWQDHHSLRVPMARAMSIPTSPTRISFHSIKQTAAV
Method in brief: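 Frozen stocks of hCRHR2-expressing CHO-K1 cells, thawed just before testing, received peptide agonists in suspension; cAMP quantified by competitive HTRF immunoassay, with curves fitted by nonlinear regression (variable slope) for EC50.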

[1] = library peptides, matched molecular pairs L vs Nle in position X^38, read-out: Potency hCRHR1 pEC50 (converted)
[2] = library peptides, matched molecular pairs L vs Nle in position X^38, read-out: Potency hCRHR2 pEC50 (converted)
[3] = Table 4, library peptides having X^38 = Nle, read-out: hCRHR1 pEC50 (converted)
[4] = Table 4, library peptides having X^38 = Nle, read-out: hCRHR2 pEC50 (converted)

Row | EC50 (hCRHR1; [1]) [nM] | EC50 (hCRHR2; [2]) [nM] | EC50 (hCRHR1; [3]) [nM] | EC50 (hCRHR2; [4]) [nM] | Selectivity hCRHR1 EC50/hCRHR2 EC50 (hCRHR2; Table 4, ratio, or comparison with Ref. 1 (SEQ ID NO: 205) / Ref. 2 (SEQ ID NO: 124)) | SMILES
1 | 20000 | 0.398 | – | – | – | CC[C@H](C)[C@H](N)C(=O)N[C@H](C(=O)N[C@@H](CC(C)C)C(=O)N[C@@H](CO)C(=O)N[C@@H](CC(C)C)C(=O)N[C@@H](CC(=O)O)C(=O)N[C@H](C(=O)N1CCC[C@H]1C(=O)N[C@H](C(=O)NCC(=O)N[C@@H](CC(C)C)C(=O)N[C@@H](CC(C)C)C(=O)N[C@@H](CCC(N)=O)C(=O)N[C@H](C(=O)N[C@@H](CC(C)C)C(=O)N[C@@H](CC(C)C)C(=O)N[C@@H](CCC(=O)O)C(=O)N[C@@H](CCC(N)=O)C(=O)N[C@@H](C)C(=O)N[C@@H](CCCNC(=N)N)C(=O)N[C@@H](C)C(=O)N[C@@H](CCC(N)=O)C(=O)N[C@@H](C)C(=O)N[C@@H](C)C(=O)N[C@@H](CCCNC(=N)N)C(=O)N[C@@H](CCC(N)=O)C(=O)N[C@@H](CCC(N)=O)C(=O)N[C@@H](C)C(=O)N[C@@H](CCCCNC(=O)COCCOCCNC(=O)COCCOCCNC(=O)CC[C@H](NC(=O)CC[C@H](NC(=O)CCCCCCCCCCCCCCCCCCC(=O)O)C(=O)O)C(=O)O)C(=O)N[C@H](C(=O)N[C@@H](CC(N)=O)C(=O)N[C@@H](C)C(=O)N[C@@H](CCC(=O)O)C(=O)N[C@H](C(=O)N[C@@H](CC(C)C)C(=O)N[C@@H](C)C(=O)N[C@@H](CCC(=O)O)C(=O)N[C@H](C(N)=O)C(C)C)[C@@H](C)CC)[C@@H](C)O)[C@@H](C)CC)[C@@H](C)CC)C(C)C)C(C)C [compound 54] (H-IVLSLDVPIGLLQILLEQARAQAARQQAK([AEEA-AEEA-γGlu-γGlu-C20 diacid])TNAEILAEV-NH2)
2 | 20000 | 0.398 | – | – | – | CC[C@H](C)[C@H](N)C(=O)N[C@H](C(=O)N[C@@H](CC(C)C)C(=O)N[C@@H](CO)C(=O)N[C@@H](CC(C)C)C(=O)N[C@@H](CC(=O)O)C(=O)N[C@H](C(=O)N1CCC[C@H]1C(=O)N[C@H](C(=O)NCC(=O)N[C@@H](CC(C)C)C(=O)N[C@@H](CC(C)C)C(=O)N[C@@H](CCC(N)=O)C(=O)N[C@H](C(=O)N[C@@H](CC(C)C)C(=O)N[C@@H](CC(C)C)C(=O)N[C@@H](CCC(=O)O)C(=O)N[C@@H](CCC(N)=O)C(=O)N[C@@H](C)C(=O)N[C@@H](CCCNC(=N)N)C(=O)N[C@@H](C)C(=O)N[C@@H](CCC(N)=O)C(=O)N[C@@H](C)C(=O)N[C@@H](C)C(=O)N[C@@H](CCCNC(=N)N)C(=O)N[C@@H](CCC(=O)O)C(=O)N[C@@H](CCCNC(=N)N)C(=O)N[C@@H](C)C(=O)N[C@@H](CCCCNC(=O)COCCOCCNC(=O)COCCOCCNC(=O)CC[C@H](NC(=O)CC[C@H](NC(=O)CCCCCCCCCCCCCCCCCCC(=O)O)C(=O)O)C(=O)O)C(=O)N[C@H](C(=O)N[C@@H](CC(N)=O)C(=O)N[C@@H](C)C(=O)N[C@@H](CCC(=O)O)C(=O)N[C@H](C(=O)N[C@@H](CC(C)C)C(=O)N[C@@H](C)C(=O)N[C@@H](CCC(=O)O)C(=O)N[C@H](C(N)=O)C(C)C)[C@@H](C)CC)[C@@H](C)O)[C@@H](C)CC)[C@@H](C)CC)C(C)C)C(C)C [compound 48] (H-IVLSLDVPIGLLQILLEQARAQAARERAK([AEEA-AEEA-γGlu-γGlu-C20 diacid])TNAEILAEV-NH2)
3 | – | – | 1000 | 0.0251 | – | CCCC[C@H](NC(=O)[C@@H](NC(=O)[C@H](CCC(=O)O)NC(=O)C(C)(C)NC(=O)[C@H](CC(N)=O)NC(=O)[C@@H](NC(=O)[C@H](CCCCNC(=O)COCCOCCNC(=O)COCCOCCNC(=O)CC[C@H](NC(=O)CC[C@H](NC(=O)CCCCCCCCCCCCCCCCCCC(=O)O)C(=O)O)C(=O)O)NC(=O)[C@H](C)NC(=O)[C@H](CCC(N)=O)NC(=O)[C@H](CCC(=O)O)NC(=O)[C@H](CCCNC(=N)N)NC(=O)[C@H](C)NC(=O)[C@H](C)NC(=O)[C@H](CCCNC(=N)N)NC(=O)[C@H](C)NC(=O)[C@H](CCCNC(=N)N)NC(=O)[C@H](C)NC(=O)[C@H](CCC(N)=O)NC(=O)CNC(=O)[C@H](CC(C)C)NC(=O)[C@H](CC(C)C)NC(=O)[C@@H](NC(=O)[C@H](CCC(N)=O)NC(=O)[C@H](CC(C)C)NC(=O)[C@H](CC(C)C)NC(=O)CNC(=O)[C@@H](NC(=O)[C@@H]1CCCN1C(=O)[C@@H](NC(=O)[C@H](CC(=O)O)NC(=O)[C@H](CC(C)C)NC(=O)[C@H](CO)NC(=O)[C@H](CC(C)C)NC(=O)[C@@H](NC(=O)[C@@H](NC)[C@@H](C)CC)C(C)C)C(C)C)[C@@H](C)CC)[C@@H](C)CC)[C@@H](C)O)[C@@H](C)CC)C(=O)N[C@@H](C)C(=O)N[C@@H](CCC(=O)O)C(=O)N[C@H](C(N)=O)C(C)C [compound 204] (H-[NMeI]VLSLDVPIGLLQILLGQARARAAREQAK([AEEA-AEEA-γGlu-γGlu-C20 diacid])TN[Aib]EI[Nle]AEV-NH2)
4 | – | – | 1260 | 0.0631 | 20689 | CCCC[C@H](NC(=O)[C@@H](NC(=O)[C@H](CCC(=O)O)NC(=O)C(C)(C)NC(=O)[C@H](CC(N)=O)NC(=O)[C@@H](NC(=O)[C@H](CCCCNC(=O)COCCOCCNC(=O)COCCOCCNC(=O)CC[C@H](NC(=O)CC[C@H](NC(=O)CCCCCCCCCCCCCCCCCCC(=O)O)C(=O)O)C(=O)O)NC(=O)[C@H](C)NC(=O)[C@H](CCC(N)=O)NC(=O)[C@H](CCC(=O)O)NC(=O)[C@H](CCCNC(=N)N)NC(=O)[C@H](C)NC(=O)[C@H](C)NC(=O)[C@H](CCCNC(=N)N)NC(=O)[C@H](C)NC(=O)[C@H](CCCNC(=N)N)NC(=O)[C@H](C)NC(=O)[C@H](CCC(N)=O)NC(=O)[C@H](CCC(=O)O)NC(=O)[C@H](CC(C)C)NC(=O)[C@H](CC(C)C)NC(=O)[C@@H](NC(=O)[C@H](CCC(N)=O)NC(=O)[C@H](CC(C)C)NC(=O)[C@H](CC(C)C)NC(=O)CNC(=O)[C@@H](NC(=O)[C@@H]1CCCN1C(=O)[C@@H](NC(=O)[C@H](CC(=O)O)NC(=O)[C@H](CC(C)C)NC(=O)[C@H](CO)NC(=O)[C@H](CC(C)C)NC(=O)[C@@H](NC(=O)[C@@H](NC)[C@@H](C)CC)C(C)C)C(C)C)[C@@H](C)CC)[C@@H](C)CC)[C@@H](C)O)[C@@H](C)CC)C(=O)N[C@@H](C)C(=O)N[C@@H](CCC(=O)O)C(=O)N[C@H](C(N)=O)C(C)C [compound 205] (H-[NMeI]VLSLDVPIGLLQILLEQARARAAREQAK([AEEA-AEEA-γGlu-γGlu-C20 diacid])TN[Aib]EI[Nle]AEV-NH2)
5 | 251 | 0.316 | – | – | – | CC[C@H](C)[C@H](N)C(=O)N[C@H](C(=O)N[C@@H](CC(C)C)C(=O)N[C@@H](CO)C(=O)N[C@@H](CC(C)C)C(=O)N[C@@H](CC(=O)O)C(=O)N[C@H](C(=O)N1CCC[C@H]1C(=O)N[C@H](C(=O)NCC(=O)N[C@@H](CC(C)C)C(=O)N[C@@H](CC(C)C)C(=O)N[C@@H](CCC(N)=O)C(=O)N[C@H](C(=O)N[C@@H](CC(C)C)C(=O)N[C@@H](CC(C)C)C(=O)N[C@@H](CCC(=O)O)C(=O)N[C@@H](CCC(N)=O)C(=O)N[C@@H](C)C(=O)N[C@@H](CCCNC(=N)N)C(=O)N[C@@H](C)C(=O)N[C@@H](CCCNC(=N)N)C(=O)N[C@@H](CCC(N)=O)C(=O)N[C@@H](CC(C)C)C(=O)N[C@@H](CCCNC(=N)N)C(=O)N[C@@H](CCC(=O)O)C(=O)N[C@@H](CCC(N)=O)C(=O)N[C@@H](C)C(=O)N[C@@H](CCCCNC(=O)COCCOCCNC(=O)COCCOCCNC(=O)CC[C@H](NC(=O)CC[C@H](NC(=O)CCCCCCCCCCCCCCCCCCC(=O)O)C(=O)O)C(=O)O)C(=O)N[C@H](C(=O)N[C@@H](CC(N)=O)C(=O)N[C@@H](C)C(=O)N[C@@H](CCC(=O)O)C(=O)N[C@H](C(=O)N[C@@H](CC(C)C)C(=O)N[C@@H](C)C(=O)N[C@@H](CCC(=O)O)C(=O)N[C@H](C(N)=O)C(C)C)[C@@H](C)CC)[C@@H](C)O)[C@@H](C)CC)[C@@H](C)CC)C(C)C)C(C)C [compound 72] (H-IVLSLDVPIGLLQILLEQARARQLREQAK([AEEA-AEEA-γGlu-γGlu-C20 diacid])TNAEILAEV-NH2)
